Our source for the pest or weed control and plant injury values is patent US12077503B2, “Substituted cyclic amides and their use as herbicides” (FMC CORPORATION, priority 2015, dated 2024).

Type in all cases: in vivo
For assay [1], the system named is Kochia (Kochia scoparia). Put plainly: Test A preemergence. The note with it: Bassia scoparia, pre-emergence, 240 h; for pest or weed control at 125 g/ha: 125 g ai/ha, preemergence, 0 to 100 scale where 0 is no effect and 100 is complete control, read-out: Kochia plant response rating; for pest or weed control at 500 g/ha: 500 g ai/ha, Preemergence, visual injury vs untreated controls after approximately 10 d, read-out: Kochia plant response rating (0 to 100 scale where 0 is no effect and 100 is complete control). In short, it runs like this:
(§1)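 Visual injury scores from 0, no effect, to 100, complete control, were assigned versus untreated controls roughly 10 d after treatment in the greenhouse. Test chemicals, formulated with surfactant in a non-phytotoxic solvent, were applied to planted seeds as a preemergence soil spray or postemergence to one- to two-leaf plants 2 to 10 cm tall, in loam–sand soil.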

Assay [2] deals with barnyardgrass (Echinochloa crus-galli). The assay is described as follows: Test A preemergence. Conditions: Echinochloa crus-galli, pre-emergence, 240 h; for pest or weed control at 125 g/ha: 125 g ai/ha, preemergence, 0 to 100 scale where 0 is no effect and 100 is complete control, read-out: Barnyardgrass plant response rating; for pest or weed control at 500 g/ha: 500 g ai/ha, Preemergence, visual injury vs untreated controls after approximately 10 d, read-out: Barnyardgrass plant response rating (0 to 100 scale where 0 is no effect and 100 is complete control). In short, it runs like this:
as §1

Assay [3] concerns giant foxtail (Setaria faberii). The assay is described as follows: Test A preemergence. Conditions: Setaria faberi, pre-emergence, 240 h; for pest or weed control at 125 g/ha: 125 g ai/ha, preemergence, 0 to 100 scale where 0 is no effect and 100 is complete control, read-out: Foxtail, Giant plant response rating; for pest or weed control at 500 g/ha: 500 g ai/ha, Preemergence, visual injury vs untreated controls after approximately 10 d, read-out: Foxtail, Giant plant response rating (0 to 100 scale where 0 is no effect and 100 is complete control). The gist of the method:
as §1

In assay [4] the test system is pigweed (Amaranthus retroflexus). Put plainly: Test A preemergence. Conditions: Amaranthus retroflexus, pre-emergence, 240 h; for pest or weed control at 125 g/ha: 125 g ai/ha, preemergence, 0 to 100 scale where 0 is no effect and 100 is complete control, read-out: Pigweed plant response rating; for pest or weed control at 500 g/ha: 500 g ai/ha, Preemergence, visual injury vs untreated controls after approximately 10 d, read-out: Pigweed plant response rating (0 to 100 scale where 0 is no effect and 100 is complete control).

Assay [5] concerns ragweed (common ragweed, Ambrosia elatior). The assay is described as follows: Test A preemergence. Conditions: Ambrosia artemisiifolia, pre-emergence, 240 h; for pest or weed control at 125 g/ha: 125 g ai/ha, preemergence, 0 to 100 scale where 0 is no effect and 100 is complete control, read-out: Ragweed plant response rating; for pest or weed control at 500 g/ha: 500 g ai/ha, Preemergence, visual injury vs untreated controls after approximately 10 d, read-out: Ragweed plant response rating (0 to 100 scale where 0 is no effect and 100 is complete control). In short, it runs like this: as §1

Assay [6] concerns ryegrass, Italian (Italian ryegrass, Lolium multiflorum). Put plainly: Test A preemergence. Conditions: Lolium multiflorum, pre-emergence, 240 h; for pest or weed control at 125 g/ha: 125 g ai/ha, preemergence, 0 to 100 scale where 0 is no effect and 100 is complete control, read-out: Ryegrass, Italian plant response rating; for pest or weed control at 500 g/ha: 500 g ai/ha, Preemergence, visual injury vs untreated controls after approximately 10 d, read-out: Ryegrass, Italian plant response rating (0 to 100 scale where 0 is no effect and 100 is complete control). In short, it runs like this: as §1

Assay [7] deals with Galium (catchweed bedstraw, Galium aparine). The assay is described as follows: Test A postemergence. Conditions: Galium, post-emergence, 240 h, 125 g ai/ha, postemergence, visual injury rating after approximately 10 d; read-out: Galium plant response rating (0 to 100 scale, 0 no effect, 100 complete control). In short, it runs like this:
as §1

In assay [8] the test system is Kochia (Kochia scoparia). Put plainly: Test A postemergence. Conditions: Bassia scoparia, post-emergence, 240 h, 125 g ai/ha, postemergence, visual injury rating after approximately 10 d; read-out: Kochia plant response rating (0 to 100 scale, 0 no effect, 100 complete control). In short, it runs like this:
as §1

The test system of assay [9] is barnyardgrass (Echinochloa crus-galli). Put plainly: Test A postemergence. Conditions: Echinochloa crus-galli, post-emergence, 240 h, 125 g ai/ha, postemergence, visual injury rating after approximately 10 d; read-out: Barnyardgrass plant response rating (0 to 100 scale, 0 no effect, 100 complete control). The gist of the method:
as §1

The test system of assay [10] is blackgrass (Alopecurus myosuroides). Put plainly: Test A postemergence. Conditions: Alopecurus myosuroides, post-emergence, 240 h, 125 g ai/ha, postemergence, visual injury rating after approximately 10 d; read-out: Blackgrass plant response rating (0 to 100 scale, 0 no effect, 100 complete control). The gist of the method:
as §1

Assay [11] has as its system corn (Zea mays). Put plainly: Test A postemergence. Conditions: Zea mays, post-emergence, 240 h, 125 g ai/ha, postemergence, visual injury rating after approximately 10 d; read-out: Corn plant response rating (0 to 100 scale, 0 no effect, 100 complete control). The gist of the method: as §1
In assay [12] the test system is giant foxtail (Setaria faberii). The assay is described as follows: Test A postemergence. Conditions: Setaria faberi, post-emergence, 240 h, 125 g ai/ha, postemergence, visual injury rating after approximately 10 d; read-out: Foxtail, Giant plant response rating (0 to 100 scale, 0 no effect, 100 complete control). The gist of the method:
as §1

Assay [13] relates to ragweed (common ragweed, Ambrosia elatior). The assay is described as follows: Test A postemergence. The note with it: Ambrosia artemisiifolia, post-emergence, 240 h, 125 g ai/ha, postemergence, visual injury rating after approximately 10 d; read-out: Ragweed plant response rating (0 to 100 scale, 0 no effect, 100 complete control). In short, it runs like this: as §1
For assay [14], the system named is ryegrass, Italian (Italian ryegrass, Lolium multiflorum). Put plainly: Test A postemergence. The note with it: Lolium multiflorum, post-emergence, 240 h, 125 g ai/ha, postemergence, visual injury rating after approximately 10 d; read-out: Ryegrass, Italian plant response rating (0 to 100 scale, 0 no effect, 100 complete control). In short, it runs like this:
as §1

Assay [15] deals with wheat (Triticum aestivum). Put plainly: Test A postemergence. The note with it: Triticum aestivum, post-emergence, 240 h, 125 g ai/ha, postemergence, visual injury rating after approximately 10 d; read-out: Wheat plant response rating (0 to 100 scale, 0 no effect, 100 complete control). The gist of the method:
as §1

On to `CSc1ccccc1NC(=O)[C@H]1C(=O)N(C)C[C@@H]1c1cc(C)cc(F)c1` [Compound 851], for which the pest or weed control at 125 g/ha was determined as 20% in assay [1]; 90% in assay [2]; 90% in assay [3]; 60% in [4]; 0% in assay [5]; 0% in assay [6]. For the same compound, the pest or weed control at 125 g/ha is 30% in [7]; 0% in assay [8]; 90% in assay [9]; 0% in [10]; 90% in [12]; 0% in [13]. The pest or weed control at 125 g/ha in assay [14] is 0%. Moreover, the pest or weed control at 500 g/ha is 70% in assay [1]; 90% in assay [2]; 90% in assay [3]; 90% in assay [4]; 30% in assay [5]; 70% in assay [6]. Besides, the plant injury at 125 g/ha stood at 0% in assay [11] and 20% in assay [15].

As for `CCc1cc([C@H]2CNC(=O)[C@@H]2C(=O)Nc2ccccc2F)cs1` [Compound 913], the pest or weed control at 125 g/ha turned out to be 0% in assay [1]; 80% in [2]; 50% in assay [3]; 0% in [4]; 0% in [5]; 0% in [6]. Moreover, the pest or weed control at 125 g/ha in assay [7] worked out at 30%; in [8] it was 0%; in assay [9], 90%; in assay [10], 0%; in assay [12] it was 30%; in assay [13] it was 30%. Further, in assay [14], the pest or weed control at 125 g/ha worked out at 0%. In addition, the pest or weed control at 500 g/ha came out at 40% in assay [1]; 90% in assay [2]; 90% in [3]; 0% in assay [4]; 60% in assay [5]; 40% in assay [6]. Moreover, the plant injury at 125 g/ha in assay [11] and in assay [15] was 0% throughout.
